Source: patent US5229362A, “Antibiotic A10255 complex and factors, and process and production therefor” (Eli Lilly and Company, priority 1991, dated 1993)

Tested on: rumen-cannulated wethers
Test: Rumen lactic acidosis in rumen-cannulated wethers switched abruptly to concentrate
Format: in vivo, sheep
Conditions: 60 mg/d; Day 6, 12-hr sample

CC[C@@]1([C@@H]2O[C@@H]([C@H]3O[C@@](O)(CO)[C@H](C)C[C@@H]3C)C[C@@H]2C)CC[C@H]([C@]2(C)CC[C@]3(C[C@H](O)[C@@H](C)[C@@H]([C@@H](C)[C@@H](OC)[C@H](C)C(=O)O)O3)O2)O1 [Monensin]
Rumen pH: 5.02
Ruminal TVFA: 43.6 mM/l
